Test results taken from US7687484B2, “Transporter enhanced corticosteroid activity” (priority 2006, dated 2010).
“Also recorded” adds a separate entry of the source. Where two headings read alike, the source gives them in different places.

Columns and labels:
[1] = target: T1, Corticosteroid Binding Globulin (CBG), transcortin (Homo sapiens, UniProt P08185); conditions: cited from earlier work; for Class: CBG binding activity class; for Log 1/K: CBG binding affinity, literature data
T1 sequence (P08185 23-405): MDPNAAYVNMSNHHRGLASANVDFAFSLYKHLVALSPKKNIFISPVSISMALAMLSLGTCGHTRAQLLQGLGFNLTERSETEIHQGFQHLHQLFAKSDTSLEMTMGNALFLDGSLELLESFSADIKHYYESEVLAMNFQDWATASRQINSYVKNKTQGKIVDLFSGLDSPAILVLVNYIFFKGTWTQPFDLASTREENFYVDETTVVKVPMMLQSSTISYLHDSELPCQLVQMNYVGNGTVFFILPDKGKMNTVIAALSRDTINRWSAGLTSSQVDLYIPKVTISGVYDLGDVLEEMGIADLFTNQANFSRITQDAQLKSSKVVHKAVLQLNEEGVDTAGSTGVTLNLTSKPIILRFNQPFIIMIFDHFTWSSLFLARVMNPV

transcortin (CBG) = target: T2, transcortin (CBG) (Homo sapiens, UniProt P08185); experiment: Binding of corticosteroids to transcortin: 3H-cortisol competition in charcoal-treated diluted plasma
T2 construct: from tissue; host or cells: plasma from venous blood of healthy volunteers, charcoal-treated, diluted 100-fold
T2 sequence (P08185 23-405): T1 sequence (P08185 23-405)
Method: Experimental procedure: Venous blood was collected from healthy volunteers into heparin-containing tubes (5 Us/100 ml serum) and cells were separated from plasma by centrifugation (1500 g for 15 min). […] Charcoal-treated plasma was diluted 100-fold with binding buffer (10 mM Tris-HCl; 2 mM DTT (dithiotreitol); 1.5 mM EDTA; 0.02 M Na2MoO4; 10% Glycerol; pH 7.4) and was stored aliquoted at −80° C. […] The assay ingredients were mixed and the tubes were incubated for 1 hour on ice. At the end of the incubation, 0.2 ml of charcoal suspension (0.5% Norit A and 0.05% BSA) was added to each tube. The tubes were briefly agitated and incubated for an additional 10 min at 0° C. They were then centrifuged for 10 min at 15 000 g, and the same aliquots from the clear supernatants were quantitatively decanted into counting vials and combined with 3 ml of toluene-based scintillation fluid. […] Specific binding and IC50-values were calculated.

[2] = test system: forearms of human volunteers; experiment: Human vasoconstriction (blanching) testing; assay type: in vivo; parameters: key to Vasoconstriction activity (total score of 4 tests): sum of 4 tests, each 0 = normal skin to 4 = very intense pallor
Method: Solutions of LE, HC and PRN (0.1 or 1 mM) alone, or mixtures of LE and HC (0.1+0.1 mM, or 1+1 mM), or LE and PRN (0.1+0.1 mM, or 1+1 mM) were prepared with a vehicle containing absolute ethanol and propylene glycol (9:1). […] After evaporation of ethanol (20 min), the films were applied to the forearms of human volunteers for 4 hours. Subsequently, the vasoconstriction reaction was read and judged by the appearance of pallor at various time intervals after the removal of the discs and films. The grading scale was as follows: 0, normal skin; 1, slight pallor; 2, pallor with at least two corners outlined; 3, even pallor with a clear outlined of the application sites; 4, very intense pallor. Due to the relatively high variations in response between the volunteers, a total score of 4 tests at each time point was taken for the activity evaluation.

[3] = 3 nM 3H-cortisol, 1 hour on ice, plasma diluted 100-fold, read-out: IC50-values (nM) average ± SEM (n)
[4] = estimated, unpublished results Bodor, Kurucz 2006, read-out: CBG Est. IC50

Row | SMILES | Class [1] | Log 1/K [1] | other results
1 | C[C@@H]1C[C@@]2(C)C(=CC1=O)CC[C@H]1[C@@H]3CC[C@](O)(C(=O)CO)[C@@]3(C)C[C@H](O)[C@@]12F [2α-methyl-9α-fluoro-cortisol] | 2 | −5.797 | –
2 | CC1CC2(C)C(=CC1=O)CCC1C2C(O)CC2(C)C1CCC2(O)C(=O)CO (stereo not drawn) [2α-methylcortisol] | 1 | −7.688 | –
3 | C[C@]12CCC(=O)C=C1CC[C@@H]1[C@@H]2CC[C@]2(C)C(=O)CC[C@@H]12 [4-androstenedione] | 3 | −5.763 | –
4 | CC(=O)[C@H]1CC[C@H]2[C@@H]3CCC4=CC(=O)CC[C@]4(C)[C@H]3C(=O)C[C@]12C [4-pregnene-3,11,20-trione] | 2 | −6.779 | –
5 | C[C@]12CC[C@H]3[C@@H](CCC4=CC(=O)CC[C@@]43C)[C@@H]1CC[C@@H]2C(=O)CO [11-deoxycorticosterone] | 1 | −7.653 | –
6 | C[C@]12CCC(=O)C=C1CC[C@@H]1[C@@H]2CC[C@@]2(C)[C@H]1CC[C@]2(O)C(=O)CO [11-deoxycortisol] | 1 | −7.881 | –
7 | CC(=O)[C@@]1(O)[C@H](O)C[C@H]2[C@@H]3CCC4=CC(=O)CC[C@]4(C)[C@H]3CC[C@@]21C [16α,17α-dihydroxyprogesterone] | 2 | −6.247 | –
8 | CC(=O)[C@H]1[C@H](C)C[C@H]2[C@@H]3CCC4=CC(=O)CC[C@]4(C)[C@H]3CC[C@@]21C [16α-methylprogesterone] | 1 | −7.120 | –
9 | CC(=O)[C@@]1(O)CC[C@H]2[C@@H]3CC=C4C[C@@H](O)CC[C@]4(C)[C@H]3CC[C@@]21C [17α-hydroxypregnenolone] | 3 | −5.000 | –
10 | CC(=O)[C@@]1(O)CC[C@H]2[C@@H]3CCC4=CC(=O)CC[C@]4(C)[C@H]3CC[C@@]21C [17α-hydroxyprogesterone] | 1 | −7.740 | –
11 | CC(=O)[C@H]1CC[C@H]2[C@@H]3CCC4=CC(=O)CC[C@@H]4[C@H]3CC[C@]12C [19-norprogesterone] | 2 | −6.817 | –
12 | C[C@]12CC[C@H]3[C@@H](CCC4=CC(=O)CC[C@@H]43)[C@@H]1CC[C@@H]2O [19-nortestosterone] | 2 | −6.144 | –
13 | COC(=O)[C@@]1(O)CCC2C3CCC4=CC(=O)CC[C@]4(C)C3[C@@H](O)C[C@@]21C (stereo partly drawn) [CA-Me GYKI-25806] | – | – | IC50 (transcortin (CBG); [3]): 5.9 ± 1.4 nM
14 | C[C@]12C=CC(=O)C=C1CC[C@@H]1[C@@H]2[C@@H](O)C[C@@]2(C)[C@H]1C[C@H]1O[C@@H](C3CCCCC3)O[C@]12C(=O)CO [Ciclesonide, act. metab.] | – | – | IC50 (transcortin (CBG); [4]): > 10000 nM
15 | C[C@@H]1C[C@H]2[C@@H]3CCC4=CC(=O)C=C[C@]4(C)[C@@]3(Cl)[C@@H](O)C[C@]2(C)[C@@]1(OC(=O)c1ccco1)C(=O)CCl [Mometasone furoate] | – | – | IC50 (transcortin (CBG); [4]): > 10000 nM
16 | C[C@]12C=CC(=O)C=C1CCC1C2[C@@H](O)C[C@@]2(C)C1CC[C@]2(O)C(=O)CO (stereo partly drawn) [Prednisolone, prednisolone] | 1 | – | Vasoconstriction activity (total score of 4 tests) ([2]; 0.1 mM, 2 hr after removal, 4 h application): 0; Vasoconstriction activity (total score of 4 tests) ([2]; 0.1 mM, 4 hr after removal): 0; Vasoconstriction activity (total score of 4 tests) ([2]; 0.1 mM, 6 hr after removal): 0; Vasoconstriction activity (total score of 4 tests) ([2]; 0.1 mM, 8 hr after removal): 0; Vasoconstriction activity (total score of 4 tests) ([2]; 0.1 mM, 10 hr after removal): 0; Vasoconstriction activity (total score of 4 tests) ([2]; 0.1 mM, 16 hr after removal): 0; Vasoconstriction activity (total score of 4 tests) ([2]; 0.1 mM, 18 hr after removal): 0; Vasoconstriction activity (total score of 4 tests) ([2]; 0.1 mM, 24 hr after removal): 0; Vasoconstriction activity (total score of 4 tests) ([2]; 1 mM, 2 hr after removal, 4 h application): 0; Vasoconstriction activity (total score of 4 tests) ([2]; 1 mM, 4 hr after removal): 0; Vasoconstriction activity (total score of 4 tests) ([2]; 1 mM, 6 hr after removal): 0; Vasoconstriction activity (total score of 4 tests) ([2]; 1 mM, 8 hr after removal): 0; Vasoconstriction activity (total score of 4 tests) ([2]; 1 mM, 10 hr after removal): 0; Vasoconstriction activity (total score of 4 tests) ([2]; 1 mM, 16 hr after removal): 0; Vasoconstriction activity (total score of 4 tests) ([2]; 1 mM, 18 hr after removal): 0; Vasoconstriction activity (total score of 4 tests) ([2]; 1 mM, 24 hr after removal): 0; Vasoconstriction activity alone (in words) ([2]; by itself, concentration range 0.1 to 1 mM, human skin, listed as PRN): do not yield any detectable activity; also recorded: no activity; IC50 (transcortin (CBG); CBG Est. IC50 (nM), estimated, unpublished results Bodor, Kurucz 2006): 7 nM; IC50 (transcortin (CBG); IC50-values (nM) average ± SEM (n), 3 nM 3H-cortisol, 1 hour on ice, plasma diluted 100-fold): 6.7 ± 1.6 nM
17 | C[C@]12C=CC(=O)C=C1CCC1C2C(=O)C[C@@]2(C)C1CC[C@]2(O)C(=O)CO (stereo partly drawn) [Prednisone, prednisone] | – | – | IC50 (transcortin (CBG); [3]): 36 ± 11 nM
18 | C[C@]12CCC(=O)C=C1CC[C@@H]1[C@@H]2[C@@H](O)C[C@]2(C=O)[C@@H](C(=O)CO)CC[C@@H]12 [aldosterone] | 2 | −6.279 | –
19 | C[C@]12CCC(O)C[C@@H]1CC[C@@H]1[C@@H]2CC[C@]2(C)[C@@H](O)CC[C@@H]12 (stereo partly drawn) [androstanediol] | 3 | −5.000 | –
20 | CCCC1O[C@@H]2C[C@H]3[C@@H]4CCC5=CC(=O)C=C[C@]5(C)[C@H]4[C@@H](O)C[C@]3(C)[C@]2(C(=O)CO)O1 (stereo partly drawn) [budesonide (BUD), budesonide] | – | – | IC50 (transcortin (CBG); [4]): > 10000 nM
21 | CC(=O)OCC(=O)[C@@]1(O)CC[C@H]2[C@@H]3CCC4=CC(=O)CC[C@]4(C)[C@H]3[C@@H](O)C[C@@]21C [cortisolacetat] | 1 | −7.553 | –
22 | C[C@]12CCC(=O)C=C1CC[C@@H]1[C@@H]2C(=O)C[C@@]2(C)[C@H]1CC[C@]2(O)C(=O)CO [cortisone] | 2 | −6.892 | –
23 | C[C@]12CC[C@H](O)CC1=CC[C@@H]1[C@@H]2CC[C@]2(C)C(=O)CC[C@@H]12 [dehydroepiandrosterone] | 3 | −5.000 | –
24 | C[C@]12C[C@@H](O)[C@H]3[C@@H](CCC4=CC(=O)CC[C@@]43C)[C@@H]1CC[C@@H]2C(=O)CO [epicorticosterone] | 1 | −7.200 | –
25 | C[C@]12CC[C@@H]3c4ccc(O)cc4CC[C@H]3[C@@H]1C[C@@H](O)[C@@H]2O [estriol] | 3 | −5.000 | –
26 | CC(=O)[C@H]1CC[C@H]2[C@@H]3CC=C4C[C@@H](O)CC[C@]4(C)[C@H]3CC[C@]12C [pregnenolone] | 3 | −5.225 | –
27 | CC(=O)[C@H]1CC[C@H]2[C@@H]3CCC4=CC(=O)CC[C@]4(C)[C@H]3CC[C@]12C [progesterone] | 1 | −7.380 | –
28 | C[C@]12CC[C@H]3[C@@H](CCC4=CC(=O)CC[C@@]43C)[C@@H]1CC[C@@H]2O [testosterone] | 2 | −6.724 | –
